Assay results from patent US20170273922A1, “UREA AND BIS-UREA BASED COMPOUNDS AND ANALOGUES THEREOF USEFUL IN THE TREATMENT OF ANDROGEN RECEPTOR MEDIATED DISEASES OR DISORDERS” (THE ROYAL INSTITUTION FOR THE ADVACEMENT OF LEARNING/MCGILL …, priority 2014, published 2017).

Experiments:
Format in all cases: cell-based
[1] = system: 22Rv1 cells; experiment: MTT assay (cytotoxicity), 22Rv1 cells
Procedure: (§1) MTT assays: LNCaP, 22Rv1, Du145, H1975, A549, MB231 and MCF-7 cells are maintained in RPMI 1640 supplemented with 10% FBS. Cells were seeded at a density of 6-7×10^3 cells per well in 96-well plates. After overnight incubation, cells in fresh RPMI 1640 supplemented with 10% FBS were exposed to DMSO vehicle control or test compounds at designated concentrations for 72 h. Viable cells were evaluated by MTT assays. Experiments were performed in triplicate and repeated at least twice.

[2] = biological target: T1, full-length IRF3 (Homo sapiens, UniProt Q14653); experiment: Full-length IRF3 ISRE-luc reporter assay; conditions: PC3 cells, 24 h
T1 construct: co-transfected with full-length IRF3 or IRF3DBD-AR(1-547) expressing plasmids; expressed in transfected cells
T1 sequence (Q14653 1-427): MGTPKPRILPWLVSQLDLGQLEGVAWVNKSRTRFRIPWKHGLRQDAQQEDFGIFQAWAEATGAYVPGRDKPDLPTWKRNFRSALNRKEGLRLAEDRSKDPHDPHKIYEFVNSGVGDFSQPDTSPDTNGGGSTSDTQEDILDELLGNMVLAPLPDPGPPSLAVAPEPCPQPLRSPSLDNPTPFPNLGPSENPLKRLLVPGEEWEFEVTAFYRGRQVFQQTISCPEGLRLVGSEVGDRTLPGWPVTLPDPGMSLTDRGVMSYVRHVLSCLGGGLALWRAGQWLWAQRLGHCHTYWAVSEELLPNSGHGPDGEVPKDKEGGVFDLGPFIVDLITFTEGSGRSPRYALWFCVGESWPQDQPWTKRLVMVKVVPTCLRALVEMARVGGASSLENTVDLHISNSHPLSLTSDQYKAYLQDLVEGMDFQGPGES
From the text: For all of the others, cells were co-transfected with full-length IRF3 or IRF3DBD-AR(1-547) expressing plasmids and with the ISRE-luc reporter and pRL-TK plasmids. […] As IRF3DBD-AR(1-547) contains the DBD of IRF3, ISRE-luc reporter instead of the PSA-luc reporter was used in our assays.
HEK293 cells were co-transfected with IRF3DBD(1-133) or IRF3DBD-AR(1-547) or IRF3DBD-AR(181-547) or full-length IRF3 expressing plasmids and with the ISRE-luc reporter and the Renilla luciferase pRL-TK plasmids.
Here, IRF3-AR(1-547) is the fusion of IRF3 DBD with the AR NTD (1-547). […] The plasmids expressing IRF3-AR(1-547) (A) or wild-type IRF3 (B) or IRF3 DBD (for NT) as well as ISRE-luc and pRL-TK were transiently transfected into PC3 cells. […] Bic, bicalutamide; EPI, EPI-001.

[3] = system: LNCaP cells; experiment: MTT assay (cytotoxicity), LNCaP cells
Procedure: as §1

[4] = system: DU145 cells; experiment: MTT assay (cytotoxicity), DU145 cells; conditions: 72 h, Table 2.1
Procedure: as §1

[5] = biological target: T2, IRF3DBD-AR(1-547) (Homo sapiens, UniProt P10275); experiment: IRF3DBD-AR(1-547) ISRE-luc reporter assay; conditions: PC3 cells, 24 h
T2 construct: IRF3-AR(1-547) is the fusion of IRF3 DBD with the AR NTD (1-547); expressed in transfected cells
T2 sequence (P10275 1-547): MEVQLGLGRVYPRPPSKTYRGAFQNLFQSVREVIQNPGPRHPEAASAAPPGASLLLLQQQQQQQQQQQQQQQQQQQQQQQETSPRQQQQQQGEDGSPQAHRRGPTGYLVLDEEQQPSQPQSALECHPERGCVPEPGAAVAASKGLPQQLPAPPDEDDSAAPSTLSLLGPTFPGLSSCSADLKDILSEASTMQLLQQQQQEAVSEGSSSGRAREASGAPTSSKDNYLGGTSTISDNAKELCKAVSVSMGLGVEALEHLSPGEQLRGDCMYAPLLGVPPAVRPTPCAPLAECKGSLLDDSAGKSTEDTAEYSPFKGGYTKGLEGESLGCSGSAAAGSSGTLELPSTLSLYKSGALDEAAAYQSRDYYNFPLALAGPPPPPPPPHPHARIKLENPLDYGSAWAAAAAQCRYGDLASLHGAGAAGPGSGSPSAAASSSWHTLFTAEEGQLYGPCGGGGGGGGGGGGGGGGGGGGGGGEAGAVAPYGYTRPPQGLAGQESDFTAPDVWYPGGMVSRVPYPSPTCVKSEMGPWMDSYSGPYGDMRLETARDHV

[6] = MTT assay (cytotoxicity), 22Rv1 cells; conditions: human, 22Rv1 cells
Procedure: as §1

[7] = MTT assay (cytotoxicity), LNCaP cells; conditions: human, LNCaP cells
Procedure: as §1

[8] = MTT assay (cytotoxicity), DU145 cells; conditions: human, DU145 cells
Procedure: as §1

[9] = MTT assay (cytotoxicity), MCF-7 cells; conditions: human, 72 h treatment, Table 6.1
Procedure: as §1

[10] = MTT assay (cytotoxicity), MB231 cells; conditions: human, 72 h treatment, Table 6.1
Procedure: as §1

[11] = MTT assay (cytotoxicity), H1975 cells; conditions: human, 72 h treatment, Table 6.1
Procedure: as §1

[12] = MTT assay (cytotoxicity), A549 cells; conditions: human, 72 h treatment, Table 6.1
Procedure: as §1

[13] = MTT assay (72 h), liver hepatocellular carcinoma cell line of Table 6.1; conditions: human, HepG2 cells (liver hepatocellular carcinoma), 72 h treatment, read-out: Cytotoxicity (IC50, μM) HepG2
[14] = biological target: T3, T877A mutant of full-length AR (Homo sapiens, UniProt P10275, T878A); experiment: AR T877A mutant PSA-luc reporter assay in PC3 cells; conditions: absence of DHT, 24 h
T3 sequence (P10275 1-920 T878A): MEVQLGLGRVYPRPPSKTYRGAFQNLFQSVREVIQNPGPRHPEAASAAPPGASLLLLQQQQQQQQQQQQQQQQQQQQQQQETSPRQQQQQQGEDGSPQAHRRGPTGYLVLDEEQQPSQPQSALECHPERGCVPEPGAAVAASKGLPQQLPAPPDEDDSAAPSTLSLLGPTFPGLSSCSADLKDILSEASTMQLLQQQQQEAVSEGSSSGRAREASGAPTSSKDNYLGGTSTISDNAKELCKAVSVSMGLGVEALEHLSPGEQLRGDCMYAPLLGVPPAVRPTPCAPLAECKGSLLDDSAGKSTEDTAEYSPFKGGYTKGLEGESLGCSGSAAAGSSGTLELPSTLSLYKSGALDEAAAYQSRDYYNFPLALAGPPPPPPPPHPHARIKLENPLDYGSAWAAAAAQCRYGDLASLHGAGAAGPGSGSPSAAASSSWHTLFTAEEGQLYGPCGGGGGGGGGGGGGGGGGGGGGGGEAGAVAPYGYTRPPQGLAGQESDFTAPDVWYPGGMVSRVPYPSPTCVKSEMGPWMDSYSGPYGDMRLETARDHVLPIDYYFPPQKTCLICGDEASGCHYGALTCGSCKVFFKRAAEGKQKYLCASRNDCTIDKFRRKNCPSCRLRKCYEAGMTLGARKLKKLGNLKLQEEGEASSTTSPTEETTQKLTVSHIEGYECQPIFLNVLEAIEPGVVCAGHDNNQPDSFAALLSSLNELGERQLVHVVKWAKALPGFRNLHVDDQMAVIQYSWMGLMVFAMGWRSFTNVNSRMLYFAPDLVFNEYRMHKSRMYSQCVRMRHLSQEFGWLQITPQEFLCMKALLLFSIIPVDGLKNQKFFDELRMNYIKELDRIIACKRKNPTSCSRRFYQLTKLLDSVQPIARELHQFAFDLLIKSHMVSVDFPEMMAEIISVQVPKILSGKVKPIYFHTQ
From the text: ENZ, enzalutamide; Bic, bicalutamide; OHF, hydroxyflutamide.

In the case of O=C(N/C=C/c1cc(C(F)(F)F)cc(C(F)(F)F)c1)Nc1cnccn1 [Compound 528], the IC50 ([1]; 22Rv1 cells, 72 h treatment, Table 6.1) is reported as under 1 µM, the IC50 ([1]; 72 h, Table 2.1) is reported as under 1 µM and the “activity against wild-type IRF3 (ISRE-luc)” value (“activity … (ISRE-luc)” below) [2] is reported as “inactive”. The IC50 ([3]; 72 h, Table 2.1) was 0.12 µM, the IC50 ([3]; LNCaP cells, 72 h treatment, Table 6.1) was 0.12 µM and the IC50 [4] was under 1 µM. For the same compound, the “inhibition of IRF3-AR(1-547)-dependent ISRE-luc reporter activity” value (shortened to “inhibition”) [5] was “potently inhibit”.

With O=C(Nc1cc(C(F)(F)F)cc(C(F)(F)F)c1)Nc1ccc2[nH]ccc2c1 [Compound 530] the IC50 at 72 h ([6]; 72 h, Table 4.1) was 7.1 µM, the IC50 at 72 h ([7]; 72 h, Table 4.1) was 6 µM and the IC50 at 72 h ([8]; Table 4.1) was 8.3 µM.

For O=C(N/C=C/c1cc(C(F)(F)F)cc(C(F)(F)F)c1)Nc1ccn(C(=O)N/C=C/c2cc(C(F)(F)F)cc(C(F)(F)F)c2)c(=O)n1 [Compound 532], the IC50 at 72 h ([6]; 72 h, Table 5.1) was 4.3 µM, the IC50 at 72 h ([7]; 72 h, Table 5.1) was 2.4 µM and the IC50 at 72 h ([8]; Table 5.1) was 5.1 µM.

Compound CC/C=C(\C)CN(C(=O)N/C=C/c1cc(C(F)(F)F)cc(C(F)(F)F)c1)c1ccc(C#N)nc1 [Compound 534] has an IC50 at 72 h ([6]; 72 h, Table 2.5) of 7.3 µM, an IC50 at 72 h ([7]; 72 h, Table 2.5) of 6 µM and an IC50 at 72 h ([8]; Table 2.5) of 7.1 µM.

Compound O=C(Nc1cccc(C(F)(F)F)c1)Nc1ccncn1 [Compound 574] has an IC50 at 72 h ([6]; 72 h, Table 4.1) of over 20 µM, an IC50 at 72 h ([7]; 72 h, Table 4.1) of 13.8 µM and an IC50 at 72 h ([8]; Table 4.1) of over 20 µM.

For O=C(Nc1cc(C(F)(F)F)cc(C(F)(F)F)c1)Nc1ccncn1 [Compound 578], the IC50 at 72 h ([6]; 72 h, Table 4.1) was 5.5 µM, the IC50 at 72 h ([7]; 72 h, Table 4.1) was 1.3 µM and the IC50 at 72 h ([8]; Table 4.1) was 2.4 µM.

Work on O=C(Nc1cccc(C(F)(F)F)c1)Nc1ccc(C(=O)Nc2ccccc2F)c(C(F)(F)F)c1 [Compound 822] yielded an IC50 at 72 h [9] of 4.5 µM, an IC50 at 72 h ([6]; 72 h treatment, Table 6.1) of 4 µM and an IC50 at 72 h [10] of 8.1 µM. It also gave an IC50 at 72 h ([7]; 72 h treatment, Table 6.1) of 3 µM, an IC50 at 72 h [11] of 6.3 µM and an IC50 at 72 h [12] of 6 µM. For the same compound, the IC50 at 72 h [13] was 3.2 µM.

With O=C(Nc1cccc(C(F)(F)F)c1)Nc1ccc(F)cc1NC(=O)c1cc(Cl)ccc1F [Compound 968] the “activity … (ISRE-luc)” value [2] was “inactive” and the “inhibition” value [5] was “potently inhibit”.

For O=C(Nc1cccc(Br)c1)Nc1cc(NC(=O)Nc2cccc(C(F)(F)F)c2)cc(C(F)(F)F)c1 [Compound 973], the “activity … (ISRE-luc)” value [2] was “inactive” and the “inhibition” value [5] was “potently inhibit”.

In the case of CC(C)(O)C(=O)Nc1ccc([N+](=O)[O-])c(C(F)(F)F)c1 [hydroxyflutamide, reference compound], the “agonism of AR T877A mutant (PSA-luc)” value [14] is reported as “activated”.
